According to ChEMBL document CHEMBL1149644, “alpha,alpha-Cyclic aminoacids as useful scaffolds for the preparation of hNK(2) receptor antagonists” (Bioorg Med Chem Lett, 2007):
≈ marks a conversion by molar mass, not a printed value.

Columns and labels:
Substance-K receptor [1] = biological target: T1, Substance-K receptor (Homo sapiens, UniProt P21452); assay: Displacement of [125I]NKA from human NK2 expressed in CHO-K1 cells; type: cell-based
T1 sequence (P21452 whole entry): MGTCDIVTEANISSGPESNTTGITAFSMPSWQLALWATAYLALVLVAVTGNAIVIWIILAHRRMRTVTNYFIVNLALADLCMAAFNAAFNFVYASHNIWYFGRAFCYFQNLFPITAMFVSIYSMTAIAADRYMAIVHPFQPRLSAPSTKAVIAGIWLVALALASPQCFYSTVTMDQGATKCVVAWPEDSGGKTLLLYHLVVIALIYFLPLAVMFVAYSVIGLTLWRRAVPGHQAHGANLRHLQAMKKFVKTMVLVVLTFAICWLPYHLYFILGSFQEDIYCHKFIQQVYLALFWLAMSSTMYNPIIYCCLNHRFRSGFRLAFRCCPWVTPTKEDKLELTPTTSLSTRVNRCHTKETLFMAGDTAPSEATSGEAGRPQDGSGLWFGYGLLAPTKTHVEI

Substance-K receptor [2] = biological target: T2, Substance-K receptor (Cavia porcellus, UniProt Q64077); assay: […] activity at NK2 receptor in guinea pig smooth muscle; type: functional
T2 sequence (Q64077 whole entry): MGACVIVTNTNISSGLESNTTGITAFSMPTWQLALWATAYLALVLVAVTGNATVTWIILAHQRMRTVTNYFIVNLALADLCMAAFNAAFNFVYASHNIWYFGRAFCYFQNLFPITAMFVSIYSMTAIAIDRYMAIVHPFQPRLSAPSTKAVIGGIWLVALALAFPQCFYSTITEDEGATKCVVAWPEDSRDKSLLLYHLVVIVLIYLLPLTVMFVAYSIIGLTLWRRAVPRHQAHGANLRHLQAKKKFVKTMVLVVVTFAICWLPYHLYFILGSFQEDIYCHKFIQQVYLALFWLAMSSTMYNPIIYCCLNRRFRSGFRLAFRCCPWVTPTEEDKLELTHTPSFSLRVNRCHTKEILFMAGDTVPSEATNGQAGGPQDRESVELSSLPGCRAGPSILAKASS

[3] = Solubility at pH 7.4; type: physicochemical; settings: buffer
[4] = Metabolic stability in guinea pig liver S9 fraction after 30 mins; type: ADME, subcellular, Cavia porcellus; settings: read-out: Stability

Row | Structure (SMILES) | Ki (Substance-K receptor [1]) [nM] | other results
1 | CN1CCN(CCCNC(=O)[C@@H](Cc2ccccc2)NC(=O)C2(NC(=O)c3cc4ccccc4s3)CCCC2)CC1 | 2 | 
2 | CN1CCN(CCCNC(=O)[C@@H](Cc2ccccc2)NC(=O)C2(NC(=O)c3cc4ccccc4s3)CCCCC2)CC1 | 3.98 | 
3 | NCCCCCNC(=O)[C@H](Cc1ccccc1)NC(=O)C1(NC(=O)c2cc3ccccc3s2)CCCCC1 | 398 | 
4 | NCCOCCOCCNC(=O)[C@H](Cc1ccccc1)NC(=O)C1(NC(=O)c2cc3ccccc3s2)CCCCC1 | 12.6 | 
5 | NCc1ccc(CNC(=O)[C@H](Cc2ccccc2)NC(=O)C2(NC(=O)c3cc4ccccc4s3)CCCCC2)cc1 | 126 | 
6 | CCC(CC)(NC(=O)c1cc2ccccc2s1)C(=O)N[C@@H](Cc1ccccc1)C(=O)NCCOCCOCCN | > 1000 | 
7 | CC(C)(NC(=O)c1cc2ccccc2s1)C(=O)N[C@@H](Cc1ccccc1)C(=O)NCCOCCOCCN | 100 | 
8 | NCCOCCOCCNC(=O)[C@H](Cc1ccccc1)NC(=O)CNC(=O)c1cc2ccccc2s1 | > 10000 | 
9 | NCCCCCCNC(=O)C(Cc1ccccc1)NC(=O)C1(NC(=O)c2cc3ccccc3s2)CCCCC1 (stereo unspecified) | 251 | Ki (Substance-K receptor [2]): > 1000 nM
10 | CCN(CC)CCCNC(=O)C(Cc1ccccc1)NC(=O)C1(NC(=O)c2cc3ccccc3s2)CCCCC1 (stereo unspecified) | 100 | 
11 | NCCCCCCCCNC(=O)C(Cc1ccccc1)NC(=O)C1(NC(=O)c2cc3ccccc3s2)CCCCC1 (stereo unspecified) | 126 | 
12 | NCCOCCOCCNC(=O)[C@H](Cc1ccccc1)NC(=O)C1(NC(=O)c2cc3ccccc3s2)Cc2ccccc2C1 | 20 | 
13 | CN1CCN(CCCNC(=O)[C@@H](Cc2ccccc2)NC(=O)C2(NC(=O)c3cc4ccccc4s3)Cc3ccccc3C2)CC1 | 2.51 | Ki (Substance-K receptor [2]): 126 nM
14 | CCN(CC)CCNC(=O)C(Cc1ccccc1)NC(=O)C1(NC(=O)c2cc3ccccc3s2)CCCCC1 (stereo unspecified) | 100 | 
15 | CN1CCN(CCCNC(=O)[C@H](Cc2ccccc2)NC(=O)C2(NC(=O)c3cc4ccccc4s3)CCCCC2)CC1 | 100 | 
16 | CCCCN(CCCC)CCCNC(=O)[C@@H](Cc1ccccc1)NC(=O)C1(NC(=O)c2cc3ccccc3s2)CCCCC1 |  | Ki (Substance-K receptor [2]): 200 nM
17 | O=C(NC1(C(=O)N[C@@H](Cc2ccccc2)C(=O)NCCCN2CCCC2)CCCCC1)c1cc2ccccc2s1 | 20 | 
18 | O=C(NC1(C(=O)N[C@H](Cc2ccccc2)C(=O)NCCCN2CCCC2)CCCCC1)c1cc2ccccc2s1 | 3.98 | Ki (Substance-K receptor [2]): > 1000 nM
19 | O=C(NC1(C(=O)NC(Cc2ccccc2)C(=O)NCCN2CCOCC2)CCCCC1)c1cc2ccccc2s1 (stereo unspecified) | 100 | 
20 | CN1CCCC1CCCNC(=O)C(Cc1ccccc1)NC(=O)C1(NC(=O)c2cc3ccccc3s2)CCCCC1 (stereo unspecified) | 50.1 | 
21 | CC(C)C[C@@H](NC(=O)[C@H](Cc1ccccc1)NC(=O)C1(NC(=O)c2cc3ccccc3s2)CCCCC1)C(N)=O | 70.8 | 
22 | CC(C)C[C@@H](NC(=O)[C@@H](Cc1ccccc1)NC(=O)C1(NC(=O)c2cc3ccccc3s2)CCCCC1)C(N)=O | 50.1 | 
23 | O=C(NC1(C(=O)N[C@H](Cc2ccccc2)C(=O)NCCCN2CCOCC2)CCCC1)c1cc2ccccc2s1 |  | solubility [3]: 100 µg/mL (≈ 178 µM); remaining at 0.5 h [4]: 4%
24 | NCCOCCOCCNC(=O)[C@H](Cc1ccccc1)NC(=O)C1(NC(=O)c2cc3ccccc3s2)CCc2ccccc21 (stereo partly specified) | 12.6 | 
25 | NCCOCCOCCNC(=O)[C@H](Cc1ccccc1)NC(=O)C1(NC(=O)c2cc3ccccc3s2)CCc2ccccc2C1 (stereo partly specified) | 398 | 

Row | Structure (SMILES) | Ki (Substance-K receptor [1]) [nM] | other results
26 | CC(C)C[C@H](NC(=O)[C@H](Cc1ccccc1)NC(=O)C1(NC(=O)c2cc3ccccc3s2)CCCCC1)C(N)=O | 10000 | 
27 | O=C(NC1(C(=O)N[C@@H](Cc2ccccc2)C(=O)NC2CC2)CCCCC1)c1cc2ccccc2s1 | 316 | 
28 | CN(C)CCCNC(=O)[C@H](Cc1ccccc1)NC(=O)C1(NC(=O)c2cc3ccccc3s2)CCCCC1 | 316 | 
29 | O=C(NC1(C(=O)N[C@H](Cc2ccccc2)C(=O)NCCCN2CCCC2)Cc2ccccc2C1)c1cc2ccccc2s1 | 1.26 | Ki (Substance-K receptor [2]): 200 nM
30 | CC1CCCCN1CCCNC(=O)[C@H](Cc1ccccc1)NC(=O)C1(NC(=O)c2cc3ccccc3s2)CCCCC1 (stereo partly specified) | 7.94 | Ki (Substance-K receptor [2]): > 3160 nM
31 | CC1CCCCN1CCCNC(=O)[C@@H](Cc1ccccc1)NC(=O)C1(NC(=O)c2cc3ccccc3s2)CCCCC1 (stereo partly specified) | 0.398 | Ki (Substance-K receptor [2]): 200 nM
32 | CCCCN(CCCC)CCCNC(=O)[C@@H](Cc1ccccc1)NC(=O)C1(NC(=O)c2cc3ccccc3s2)Cc2ccccc2C1 | 1.58 | Ki (Substance-K receptor [2]): 200 nM
33 | CCCCN(CCCC)CCCNC(=O)[C@H](Cc1ccccc1)NC(=O)C1(NC(=O)c2cc3ccccc3s2)CCCCC1 | 6.31 | 
34 | O=C(NC1(C(=O)N[C@H](Cc2ccccc2)C(=O)NCCCN2CCOCC2)Cc2ccccc2C1)c1cc2ccccc2s1 | 2 | Ki (Substance-K receptor [2]): 100 nM
35 | NCCOCCOCCNC(=O)[C@H](Cc1ccccc1)NC(=O)C1(NC(=O)c2cc3ccccc3s2)CCCC1 | 50.1 | 
36 | CC(C)N(CCNC(=O)C(Cc1ccccc1)NC(=O)C1(NC(=O)c2cc3ccccc3s2)CCCCC1)C(C)C (stereo unspecified) | 31.6 | 
37 | O=C(NC1(C(=O)N[C@H](Cc2ccccc2)C(=O)NCCCN2CCOCC2)CCCCC1)c1cc2ccccc2s1 |  | Ki (Substance-K receptor [2]): 100 nM
38 | CCN(CC)CCCNC(=O)[C@H](Cc1ccccc1)NC(=O)C1(NC(=O)c2cc3ccccc3s2)CCCCC1 | 39.8 | 
39 | NCCCCCCCNC(=O)C(Cc1ccccc1)NC(=O)C1(NC(=O)c2cc3ccccc3s2)CCCCC1 (stereo unspecified) | 100 | 
40 | CC(C)C[C@H](NC(=O)[C@@H](Cc1ccccc1)NC(=O)C1(NC(=O)c2cc3ccccc3s2)CCCCC1)C(N)=O | 316 | 
41 | O=C(NC1(C(=O)NC(Cc2ccccc2)C(=O)NCCN2CCCCC2)CCCCC1)c1cc2ccccc2s1 (stereo unspecified) | 63.1 | 
42 | O=C(NC1(C(=O)N[C@@H](Cc2ccccc2)C(=O)NCCCN2CCOCC2)CCCCC1)c1cc2ccccc2s1 | 25.1 | 
43 | CCCCN(CCCC)CCCNC(=O)[C@@H](Cc1ccccc1)NC(=O)C1(NC(=O)c2cc3ccccc3s2)CCc2ccccc21 (stereo in doubt; 45a) | 31.6 | 
44 | CCCCN(CCCC)CCCNC(=O)[C@@H](Cc1ccccc1)NC(=O)C1(NC(=O)c2cc3ccccc3s2)CCc2ccccc21 (stereo in doubt; 45b) | 1.58 | 
45 | O=C(NC1(C(=O)N[C@H](Cc2ccccc2)C(=O)NCCCN2CCCC2)CCc2ccccc21)c1cc2ccccc2s1 (stereo in doubt; 46a) | 6.31 | 
46 | O=C(NC1(C(=O)N[C@H](Cc2ccccc2)C(=O)NCCCN2CCCC2)CCc2ccccc21)c1cc2ccccc2s1 (stereo in doubt; 46b) | 1.26 | 
47 | O=C(NC1(C(=O)N[C@H](Cc2ccccc2)C(=O)NCCCN2CCOCC2)CCc2ccccc21)c1cc2ccccc2s1 (stereo in doubt; 47a) | 100 | 
48 | O=C(NC1(C(=O)N[C@H](Cc2ccccc2)C(=O)NCCCN2CCOCC2)CCc2ccccc21)c1cc2ccccc2s1 (stereo in doubt; 47b) | 2 | Ki (Substance-K receptor [2]): 20 nM
49 | CN1CCN(CCCNC(=O)[C@@H](Cc2ccccc2)NC(=O)C2(NC(=O)c3cc4ccccc4s3)CCc3ccccc32)CC1 (stereo in doubt; 48a) | > 100 | 
50 | CN1CCN(CCCNC(=O)[C@@H](Cc2ccccc2)NC(=O)C2(NC(=O)c3cc4ccccc4s3)CCc3ccccc32)CC1 (stereo in doubt; 48b) | 1 | Ki (Substance-K receptor [2]): 25.1 nM
